pIC50: −log10 of the molar value. Values after ≈ are worked out from the molar mass of the structure shown. Like-named read-outs stand apart in the source and are kept apart here.
Tests used:
[1] = Human Microsome Stability; type: in vitro ADME; details: human microsomes
[2] = mouse plasma protein binding (PPB) assay; type: in vitro ADME; details: average, read-out: Mouse Plasma Protein Binding % Bound Avg (converted)
How it was run: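 Plasma (mouse, rat, human) and mouse brain protein binding were run in vitro, with the free fraction as the endpoint.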

[3] = Rat Plasma Protein Stability (% Remaining); type: in vitro ADME; details: average
[4] = human plasma protein binding (PPB) assay; type: in vitro ADME; details: average, read-out: Human Plasma Protein Binding % Bound Avg (converted)
Description: We have adapted a previously reported cyclooxygenase enzymatic assay utilizing LCMS quantification of PGE2 as the product of COX-1 and COX2 catalyzed conversion of arachidonic acid to evaluate the binding properties of newly synthesized ligands [Cao, 2011]. These optimized and miniaturized (384-well plates) LCMS-based COX-1 and COX2 enzymatic assays enabled us to quickly evaluate newly synthesized ligands for COX2 binding affinity and selectivity vs COX-1. Using a shorter ligand-enzyme incubation time in the LCMS assay (2 minutes vs 10 minutes) also permitted us to prioritize ligands with faster binding kinetics. Considering the relatively slow on-rate kinetics of known coxibs, due to their 3-step binding mechanism [Marnett, 2009], we believe that optimizing this critical parameter will be key to the successful development of a COX2 PET tracer. Using these enzymatic assays, we have evaluated>200 newly synthesized ligands against COX2 and >20 ligands against COX-1. Another critical property necessary for a good PET radiotracer is to have low non-specific binding (NSB) to increase the free fraction and maximize the signal to noise ratio. This property can be evaluated using in-vitro protein binding assays, and we have now evaluated>50 newly synthesized ligands in mouse, rat and human plasma protein binding (PPB) assays as well as >15 ligands in a mouse brain protein binding (BPB) assay.

PBS Solubility (no DMSO) = type: physicochemical; details: aqueous buffer, thermodynamic from solid, average
[5] = target: T1, human recombinant COX2 (hCOX2) (UniProt P35354); assay: LCMS-based COX2 enzymatic inhibition assay (PGE2 quantification); type: biochemical; parameters: COX2 2 minutes pge2/pge2d4 area ratio Avg; other: 2 minutes; readout pge2/pge2d4 area ratio; average; COX2 2 minutes pge2/pge2d4 area ratio Avg; LLE; average LLE; COX2 2 minutes pge2 area (counts) Avg; readout pge2 area (counts); other: 2 min; "ovine COX2 (oCOX2), human recombinant COX2 (hCOX2)"; details: 2 minutes; for COX2 2 minutes pge2/pge2d4 area ratio Avg. LLE / COX2 2 minutes pge2 area (counts) Avg. LLE: average LLE; for pIC50: average
T1 sequence (P35354 1-604): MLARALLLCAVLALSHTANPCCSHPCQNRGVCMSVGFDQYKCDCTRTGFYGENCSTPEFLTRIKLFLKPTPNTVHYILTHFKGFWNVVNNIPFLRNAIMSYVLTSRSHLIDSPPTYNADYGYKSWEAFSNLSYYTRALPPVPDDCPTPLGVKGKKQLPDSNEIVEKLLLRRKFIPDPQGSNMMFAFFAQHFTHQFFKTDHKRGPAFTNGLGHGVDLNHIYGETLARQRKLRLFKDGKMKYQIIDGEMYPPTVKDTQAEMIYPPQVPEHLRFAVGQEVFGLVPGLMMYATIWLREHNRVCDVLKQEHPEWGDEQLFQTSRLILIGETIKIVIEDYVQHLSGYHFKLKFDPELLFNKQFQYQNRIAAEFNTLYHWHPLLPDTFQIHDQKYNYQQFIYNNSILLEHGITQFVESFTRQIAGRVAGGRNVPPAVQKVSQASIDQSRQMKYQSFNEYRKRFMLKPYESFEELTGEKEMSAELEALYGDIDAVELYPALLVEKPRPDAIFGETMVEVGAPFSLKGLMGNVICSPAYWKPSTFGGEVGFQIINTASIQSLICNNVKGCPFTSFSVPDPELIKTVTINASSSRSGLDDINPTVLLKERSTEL
How it was run: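 PGE2 formed from arachidonic acid (final 5 μM, 2 min) was measured by LC-MS-MS against DMSO controls. Enzyme (oCOX-1 0.1 μg or hCOX2 0.2 μg) with hematin/epinephrine cofactors at pH 8.0 was given 10 min at 37 °C with compound first. Twelve-point curves run three times gave IC50.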

[6] = Human Plasma Protein Stability (% Remaining); type: in vitro ADME; details: average
[7] = readout pge2/pge2d4 area ratio, read-out: COX2 2 minutes pge2/pge2d4 area ratio Avg. IC50
[8] = readout pge2 area (counts), read-out: COX2 2 minutes pge2 area (counts) Avg. IC50

| SMILES | Human Microsome Stability % Remaining Avg [1] | fraction unbound [2] | Rat Plasma Protein Stability % Remaining Avg [3] | fraction unbound [4] | solubility (PBS Solubility (no DMSO)) | COX2 2 minutes pge2/pge2d4 area ratio Avg. LLE ([5]; readout pge2/pge2d4 area ratio) | pIC50 [5, 7] | COX2 2 minutes pge2 area (counts) Avg. LLE ([5]; readout pge2 area (counts)) | pIC50 [5, 8] | Human Plasma Protein Stability % Remaining Avg [6] |
| --- | --- | --- | --- | --- | --- | --- | --- | --- | --- | --- |
| CS(=O)(=O)c1ccc(-c2cc(F)cc(NCc3ccco3)n2)cc1 [Compound 14] | 21% | 0.022 | 104% | 0.02 | 6.1 µM (≈ 2.11 µg/mL) | 5.172 | 8.05 | 5.203 | 8.03 | 118% |
| CS(=O)(=O)c1ccc(-c2nc(NCc3cccs3)cc3ccoc23)cc1 [Compound 2] | 27% | 0.004 | 98% | 0.003 | 0.31 µM (≈ 0.119 µg/mL) | 3.981 | 8.29 | 3.975 | 8.26 | 99% |
| CS(=O)(=O)c1ccc(-c2cccc(NCc3cccs3)n2)cc1 [Compound 24] | 18% | 0.016 | 105.1% | 0.019 | 2.1 µM (≈ 0.723 µg/mL) |  | 7.93 |  | 7.99 | 100% |
| COc1ncc(NCc2cccs2)nc1-c1ccc(S(C)(=O)=O)cc1 [Compound 29] | 24% | 0.025 | 114.5% | 0.016 | 2.8 µM (≈ 1.05 µg/mL) | 5.399 | 7.83 | 5.474 | 7.84 | 93.9% |

Source: patent US20220348590A1, “CYCLOOXYGENASE-2 INHIBITORS AND USES THEREOF” (The Board Institute, Inc., priority 2019, published 2022)
